From patent publication US20220324835A1 (Nurix Therapeutics, Inc., priority 2018, published 2022)

What was measured:
Assay type in all cases: cell-based
[1] = system: primary human total T-cells; test: T-cell activation assessed by cell proliferation (Cell Trace Violet)
Source text: (§1) Peripheral blood mononuclear cells (PBMC) were obtained either: 1) by using Ficoll-Paque™ (GE Healthcare) for separation of peripheral blood hematopoietic cells from buffy coats of healthy human donors; or 2) directly from FeukoPak donations. Total human primary T-cells were isolated from the PMBCs utilizing negative selection with commercial kits following the manufacturer's protocol (Miltenyi Catalog #130-096-535 (i.e., cocktail of antibodies against surface markers CD14, CD15, CD16, CD19, CD34, CD36, CD56, CD123 and CD235a are incubated with the PBMCs before passing the samples by magnetic beads for removal of cells expressing those surface markers) or StemCells Catalog #17951) to yield >95% CD3+ cells as assessed by flow cytometry. For measurement of cell proliferation, cells were labeled with Cell Trace Violet (Invitrogen) following manufacturer's protocol prior to activation by stimulation with anti-CD3 antibody alone or in combination with anti-CD28 antibody. The Cbl-b inhibitor was added to 1×10^5 cells per well at multiple concentrations (e.g., 10 μM, 1.11 μM, or 0.123 μM) with a final DMSO concentration of <0.1%. The plate was incubated for one hour at 37° C. in 5% CO2. Following incubation with the Cbl-b inhibitor, primary human total T-cells were stimulated with either plate bound anti-CD3 antibody (OKT3) alone or plate bound anti-CD3 antibody (OKT3) with soluble anti-CD28 antibody (28.2) (Life Technologies). To prepare plates with plate bound anti-CD3 antibody (OKT3), 96-well round bottom tissue culture plates were coated with 100 μl of anti-CD3 antibody (OKT3) at 10 μg/mL for 4 hours at 37° C. 5% CO2 in phosphate buffered saline (PBS). The plates were washed with PBS prior to adding the cells with or without soluble anti-CD28 antibody (28.2) to each well at a final concentration of 5 μg/mL. Cells were stimulated for 48 hours prior to harvesting the cell free supernatant and staining the cell population for surface marker assessment by flow cytometry. Supernatants were analyzed for cytokine secretion (e.g., GM-CSF, IFNγ and TNFα) by ELISA (R&D Systems, Peprotech or Life Technologies) or Luminex multiplex kits (Procarta Life Technologies) following manufacturer's protocol. Cells were stained with anti-CD69 (BD Biosciences) to assess levels of surface markers of activation. Proliferation was measured by flow cytometry and data was analyzed with FlowJo v7.6.5 or v10. Readouts were reported as fold change over baseline. In some embodiments, baseline was the measurement obtained from total human T-cells stimulated with anti-CD3 antibody alone, wherein the cells were not incubated with a Cbl-b inhibitor. In some embodiments, baseline was the measurement obtained from total human T-cells stimulated with anti-CD3 antibody and anti-CD28 antibody, where the cells were not incubated with a Cbl-b inhibitor.
(§2) Cbl-b inhibitors were tested to determine their ability to induce or enhance secretion of cytokines from T-cells (e.g., GM-CSF, IFNγ and TNFα) and/or surface expression of cell surface markers on T-cells (e.g., CD69) that is indicative of T-cell activation. Cbl-b inhibitors were also tested to determine their ability to induce or enhance T-cell proliferation. Cbl-b inhibitors were tested for their effects on T-cell activation in the presence of costimulation and where conditions were suboptimal for priming.
(§3) Readouts for T-cell activation were reported as fold change over baseline. Baseline for this study was the measurement obtained from total human T-cells stimulated with anti-CD3 antibody alone or anti-CD3 antibody in combination with soluble anti-CD28 antibody, where the cells were not incubated with a Cbl-b inhibitor. For T-cells stimulated with anti-CD3/anti-CD28 or with anti-CD3 alone changes greater than 1,2-fold over baseline for % positive CD69 staining and greater than 2-fold over baseline for % total proliferating cells were considered a significant and positive response (Table 4a). […]

[2] = system: primary human total T-cells; test: T-cell activation assessed by cytokine secretion (GM-CSF, IFNγ, TNFα)
Source text: as §1, §2, §3

[3] = system: primary human total T-cells; test: T-cell activation assessed by CD69 expression
Source text: as §1, §2, §3

[4] = CD3/CD28 stimulation, CD4 T-cells, read-out: % CP (cell proliferation) (CD4)
[5] = CD3/CD28 stimulation, CD8 T-cells, read-out: % CP (cell proliferation) (CD8)
[6] = CD3 alone stimulation, CD8 T-cells, read-out: % CP (cell proliferation) (CD8)
[7] = CD3/CD28 stimulation, read-out: GM-CSF secretion
[8] = CD3/CD28 stimulation, read-out: IFNγ secretion
[9] = CD3/CD28 stimulation, read-out: TNFα secretion
[10] = CD3 alone stimulation, read-out: GM-CSF secretion
[11] = CD3 alone stimulation, read-out: IFNγ secretion
[12] = CD3 alone stimulation, read-out: TNFα secretion
[13] = CD3/CD28 stimulation, CD4 T-cells, read-out: % CD69+ (CD4)
[14] = CD3/CD28 stimulation, CD8 T-cells, read-out: % CD69+ (CD8)
[15] = CD3 alone stimulation, CD4 T-cells, read-out: % CD69+ (CD4)
[16] = CD3 alone stimulation, CD8 T-cells, read-out: % CD69+ (CD8)

Row | Structure (SMILES) | fold induction at 1.11 µM [1, 4] | fold induction at 10 µM [1, 4] | fold induction at 1.11 µM [1, 5] | fold induction at 10 µM [1, 5] | fold induction at 1.11 µM [1, 6] | fold induction at 10 µM [1, 6] | fold induction at 1.11 µM [2, 7] | fold induction at 1.11 µM [2, 8] | fold induction at 1.11 µM [2, 9] | fold induction at 10 µM [2, 7] | fold induction at 10 µM [2, 8] | fold induction at 10 µM [2, 9] | fold induction at 1.11 µM [2, 10] | fold induction at 1.11 µM [2, 11] | fold induction at 1.11 µM [2, 12] | fold induction at 10 µM [2, 10] | fold induction at 10 µM [2, 11] | fold induction at 10 µM [2, 12] | fold induction at 1.11 µM [3, 13] | fold induction at 10 µM [3, 13] | also measured
1 | Cc1cc(C(=O)Nc2cccc([C@@H](C)Cc3nncn3C)c2)nc(C2CC2)n1 [Compound 325, (S)-2-Cyclopropyl-6-methyl-N-(3-(1-(4-methyl-4H-1,2,4-triazol-3-yl)propan-2-yl)phenyl)pyrimidine-4-carboxamide] | > 4 | > 4 | 2.01 to 3 | > 4 | 2.01 to 3 | > 4 | 1.51 to 2 | 3.01 to 4 | ≤ 1.5 | 2.01 to 4 | > 4 | 2.01 to 4 | ≤ 1.5 | < 2 | ≤ 1.5 | 1.51 to 2 | < 2 | ≤ 1.5 | 1.4 to 1.6 | 1.4 to 1.6 | fold induction at 1.11 µM [3, 14]: 1.2 to 1.4; fold induction at 10 µM [3, 14]: 1.2 to 1.4; fold induction at 1.11 µM [3, 15]: 1.4 to 1.6; fold induction at 10 µM [3, 15]: > 1.6; fold induction at 1.11 µM [3, 16]: ≤ 1.2; fold induction at 10 µM [3, 16]: 1.2 to 1.4
2 | Cn1cnnc1CC1(c2cccc(NC(=O)c3nc4c(C(F)(F)F)cccc4[nH]3)c2)COC1 [Compound 335, N-(3-{3-[(4-methyl-1,2,4-triazol-3-yl)methyl]oxetan-3-yl}phenyl)-4-(trifluoromethyl)-1H-1,3-benzodiazole-2-carboxamide] | > 4 | > 4 | 3.01 to 4 | 3.01 to 4 | > 4 | > 4 | 1.51 to 2 | > 4 | 1.51 to 2 | > 4 | 2.01 to 3 | 2.01 to 4 | ≤ 1.5 | < 2 | 1.51 to 2 | 2.01 to 4 | 2.01 to 3 | 1.51 to 2 | 1.4 to 1.6 | > 1.6 | fold induction at 1.11 µM [3, 14]: 1.2 to 1.4; fold induction at 10 µM [3, 14]: 1.2 to 1.4; fold induction at 1.11 µM [3, 15]: > 1.6; fold induction at 10 µM [3, 15]: > 1.6; fold induction at 1.11 µM [3, 16]: 1.2 to 1.4; fold induction at 10 µM [3, 16]: 1.4 to 1.6
3 | Cc1cc(C(=O)Nc2cccc(C3(Cc4nncn4C)COC3)c2)nc(C2CC2)n1 [Compound 336, 2-cyclopropyl-6-methyl-N-(3-(3-((4-methyl-4H-1,2,4-triazol-3-yl)methyl)oxetan-3-yl)phenyl)pyrimidine-4-carboxamide] | > 4 | > 4 | 3.01 to 4 | > 4 | > 4 | > 4 | 2.01 to 4 | 2.01 to 3 | 2.01 to 4 | > 4 | > 4 | 2.01 to 4 | 2.01 to 4 | 2.01 to 3 | 1.51 to 2 | 2.01 to 4 | > 4 | 1.51 to 2 | 1.4 to 1.6 | 1.4 to 1.6 | fold induction at 1.11 µM [3, 14]: 1.2 to 1.4; fold induction at 10 µM [3, 14]: 1.2 to 1.4; fold induction at 1.11 µM [3, 15]: 1.4 to 1.6; fold induction at 10 µM [3, 15]: > 1.6; fold induction at 1.11 µM [3, 16]: 1.2 to 1.4; fold induction at 10 µM [3, 16]: 1.4 to 1.6
4 | Cc1n[nH]c(C)c1-c1cc2c(c(C(F)(F)F)c1)CN(c1cccc(C3(Cc4nncn4C)COC3)c1)C2=O [Compound 385, 6-(3,5-dimethyl-1H-pyrazol-4-yl)-2-(3-{3-[(4-methyl-4H-1,2,4-triazol-3-yl)methyl]oxetan-3-yl}phenyl)-4-(trifluoromethyl)-2,3-dihydro-1H-isoindol-1-one] | > 4 | > 4 | 2.01 to 3 | 3.01 to 4 | 3.01 to 4 | > 4 | 1.51 to 2 | < 2 | 1.51 to 2 | 2.01 to 4 | > 4 | 2.01 to 4 | 1.51 to 2 | < 2 | ≤ 1.5 | 2.01 to 4 | < 2 | 1.51 to 2 | 1.2 to 1.4 | 1.4 to 1.6 | fold induction at 1.11 µM [3, 14]: 1.2 to 1.4; fold induction at 10 µM [3, 14]: 1.2 to 1.4; fold induction at 1.11 µM [3, 15]: 1.4 to 1.6; fold induction at 10 µM [3, 15]: > 1.6; fold induction at 1.11 µM [3, 16]: 1.2 to 1.4; fold induction at 10 µM [3, 16]: 1.4 to 1.6
